From patent US10912770B2, “Targeting AMP deaminase 2 for ameliorating craving for sugar and other substances” (The Regents of the University of Colorado, a body coporate, priority 2016, dated 2021)
“Also recorded” adds a separate entry of the source.

Assays:
human AMPDA = settings: cited from earlier work; for Ki: human AMPDA, read-out: AMPDA K(i)
adenosine deaminase = molecular target: T1, adenosine deaminase (Homo sapiens, UniProt P00813); settings: cited from earlier work
T1 sequence (P00813 1-363): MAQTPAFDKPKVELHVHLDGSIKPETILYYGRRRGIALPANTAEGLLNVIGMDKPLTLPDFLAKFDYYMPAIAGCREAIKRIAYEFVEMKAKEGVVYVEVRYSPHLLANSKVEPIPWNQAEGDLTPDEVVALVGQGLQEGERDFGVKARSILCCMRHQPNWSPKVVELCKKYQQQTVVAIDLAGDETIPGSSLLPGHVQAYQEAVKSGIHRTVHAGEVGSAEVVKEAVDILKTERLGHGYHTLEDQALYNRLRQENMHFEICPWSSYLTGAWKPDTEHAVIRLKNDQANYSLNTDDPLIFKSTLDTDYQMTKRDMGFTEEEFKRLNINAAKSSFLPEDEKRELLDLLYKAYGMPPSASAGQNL

AMPD2 = molecular target: T2, AMPD2 (Mus musculus, UniProt Q9DBT5); experiment: AMPD2 activity in the liver after oral pan AMPD inhibitor; format: in vivo; settings: wild type mice, gavage 25 mg/kg twice daily (50 mg/kg/d)
T2 construct: from tissue
T2 sequence (Q9DBT5 1-824): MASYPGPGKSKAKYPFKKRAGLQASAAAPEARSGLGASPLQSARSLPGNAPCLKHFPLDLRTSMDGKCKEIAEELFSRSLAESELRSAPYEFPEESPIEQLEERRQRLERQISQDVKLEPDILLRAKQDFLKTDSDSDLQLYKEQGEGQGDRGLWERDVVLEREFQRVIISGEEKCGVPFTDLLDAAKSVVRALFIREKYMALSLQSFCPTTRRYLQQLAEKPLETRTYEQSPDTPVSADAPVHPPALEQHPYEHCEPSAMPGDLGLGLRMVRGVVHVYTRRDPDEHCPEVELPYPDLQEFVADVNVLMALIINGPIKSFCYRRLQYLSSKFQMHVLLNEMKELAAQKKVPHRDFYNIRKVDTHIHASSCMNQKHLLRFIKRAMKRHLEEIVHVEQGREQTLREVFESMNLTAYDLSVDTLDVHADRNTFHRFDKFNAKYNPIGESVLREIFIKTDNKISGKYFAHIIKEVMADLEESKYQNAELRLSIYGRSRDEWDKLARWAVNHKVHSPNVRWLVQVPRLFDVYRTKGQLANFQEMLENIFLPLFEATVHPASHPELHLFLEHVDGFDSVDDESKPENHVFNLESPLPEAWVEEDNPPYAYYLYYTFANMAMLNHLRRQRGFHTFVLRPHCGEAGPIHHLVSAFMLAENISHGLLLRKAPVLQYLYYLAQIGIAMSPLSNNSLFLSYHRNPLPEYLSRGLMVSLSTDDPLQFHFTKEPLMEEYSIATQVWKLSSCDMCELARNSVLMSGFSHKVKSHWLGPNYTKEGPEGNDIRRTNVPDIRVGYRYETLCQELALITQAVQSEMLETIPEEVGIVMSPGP
Experimental: (§1) Mice were administered the racemate of the active compound 1 (FIG. 2 in the paper by Admyre et al Chem Biol 2014; 21:1488-1496) by gavage at a dose of 25 mg/kg twice daily beginning two days before administering fructose (15%) in the drinking water.
(§2) The benefit from blocking AMPD2 on craving is not limited to mice genetically lacking AMPD2. Recently an inhibitor for AMPD2 was published, and we made a racemate of the active compound 1 (FIG. 2 in the paper by Admyre et al Chem Biol 2014; 21:1488-1496).

wild type mice = experiment: Fructose craving: intake of fructose (15%) drinking water; format: in vivo
Experimental: as §1, §2

| Compound | enhancement in AMPDA inhibitory potency (human AMPDA) | potency (K(i)) lower than the Km for the substrate AMP (human AMPDA) | Ki (human AMPDA) [µM] | enzyme specificity (adenosine deaminase) | AMPD2 activity in the liver (AMPD2) | craving for fructose (wild type mice; gavage 25 mg/kg twice daily (50 mg/kg/d), fructose (15%) water) | intake of fructose-containing water (wild type mice; gavage 25 mg/kg twice daily from two days before fructose (15%) in drinking water) |
| --- | --- | --- | --- | --- | --- | --- | --- |
| 3-[2-(3-carboxy-4-bromo-5,6,7,8-tetrahydronaphthyl)ethyl]-3,6,7,8-tetrahydroimidazo[4,5-d][1,3]diazepin-8-ol [Compound 24b] | 10- to 250 fold | 10(5) fold | 0.002 | without loss in the enzyme specificity | – | – | – |
| CC(NCc1ccc(-c2ccc(C(=O)O)cn2)cc1)c1cccc2ccncc12 (racemic) [racemate of the active compound 1, 6-(4-((1-(Isoquinolin-8-yl)ethylamino)methyl)phenyl)nicotinic acid] | – | – | – | – | significantly block AMPD2 activity in the liver; also recorded: inhibition of AMPD2 activity in the liver | completely blocked the craving for fructose | significantly reduce the intake of fructose-containing water |
| CCc1cc(CCn2cnc3c2N=CNCC3O)cc(C(=O)O)c1 (centres unmarked) [43 g, 3-[2-(3-carboxy-5-ethylphenyl)ethyl]-3,6,7,8-tetrahydroimidazo[4,5-d][1,3]diazepin-8-ol] | – | – | 0.06 | – | – | – | – |
